Experimental findings from patent publication US11717013B1, “Micronutrient combination to reduce blood pressure” (priority 2022, dated 2023) are described below.

In this test the target is T1, Angiotensin I Converting Enzyme isolated from cultured human aortic endothelial cells (Homo sapiens, UniProt P12821).
T1 construct: host or cells: human aortic endothelial cells (AoEC), lysed with CelLytic M
Description: ACE activity assay, ACE isolated from cultured human aortic endothelial cells. The test is classed as biochemical. To be noted: 200 mcg/ml (FIG. 5); read-out: inhibition of ACE1 activity. On the procedure: ACE 1 activity: Effects of New Micronutrient composition on catalytic activity of Angiotensin I Converting Enzyme (ACE) was analyzed using recombinant catalytic ACE domain (Sigma) or ACE isolated from cultured human aortic endothelial cells (AoEC) with ACE Activity Assay Kit (Fluorometric, Sigma, Catalog Number CS0002) in accordance with manufacturer's protocol. For preparation of cell lysate ACE human AoEC (Lonza) were plated in 75 cm2 plastic flask at 6th passage and cultured with EGB-2 endothelial cell culture medium (Lonza) in 5%CO2 at 37 °C until cell forming a confluent layer. Cells were washed twice with 10 ml phosphate buffered solution (PBS) and lysated by scratching and resuspending in 5 ml CelLytic™ M solution (Sigma) after 15 min incubation at room temperature. Results are expressed as percentage of untreated controls presented as averages +/− SD from three replicates. The results on FIG. 4 show concentration dependent inhibitory effect of the micronutrient composition for blood pressure lowering on catalytic activity of Angiotensin1 converting enzyme. Changes in ACE1 activity are expressed in % compared to control. The formula applied at 3 mcg/ml inhibits ACE1 by 20% with the most pronounced inhibitory effect of 90% and 97% obtained at 50 mcg/ml and 200 mcg/ml respectively. […]

T1 sequence (P12821 30-1306): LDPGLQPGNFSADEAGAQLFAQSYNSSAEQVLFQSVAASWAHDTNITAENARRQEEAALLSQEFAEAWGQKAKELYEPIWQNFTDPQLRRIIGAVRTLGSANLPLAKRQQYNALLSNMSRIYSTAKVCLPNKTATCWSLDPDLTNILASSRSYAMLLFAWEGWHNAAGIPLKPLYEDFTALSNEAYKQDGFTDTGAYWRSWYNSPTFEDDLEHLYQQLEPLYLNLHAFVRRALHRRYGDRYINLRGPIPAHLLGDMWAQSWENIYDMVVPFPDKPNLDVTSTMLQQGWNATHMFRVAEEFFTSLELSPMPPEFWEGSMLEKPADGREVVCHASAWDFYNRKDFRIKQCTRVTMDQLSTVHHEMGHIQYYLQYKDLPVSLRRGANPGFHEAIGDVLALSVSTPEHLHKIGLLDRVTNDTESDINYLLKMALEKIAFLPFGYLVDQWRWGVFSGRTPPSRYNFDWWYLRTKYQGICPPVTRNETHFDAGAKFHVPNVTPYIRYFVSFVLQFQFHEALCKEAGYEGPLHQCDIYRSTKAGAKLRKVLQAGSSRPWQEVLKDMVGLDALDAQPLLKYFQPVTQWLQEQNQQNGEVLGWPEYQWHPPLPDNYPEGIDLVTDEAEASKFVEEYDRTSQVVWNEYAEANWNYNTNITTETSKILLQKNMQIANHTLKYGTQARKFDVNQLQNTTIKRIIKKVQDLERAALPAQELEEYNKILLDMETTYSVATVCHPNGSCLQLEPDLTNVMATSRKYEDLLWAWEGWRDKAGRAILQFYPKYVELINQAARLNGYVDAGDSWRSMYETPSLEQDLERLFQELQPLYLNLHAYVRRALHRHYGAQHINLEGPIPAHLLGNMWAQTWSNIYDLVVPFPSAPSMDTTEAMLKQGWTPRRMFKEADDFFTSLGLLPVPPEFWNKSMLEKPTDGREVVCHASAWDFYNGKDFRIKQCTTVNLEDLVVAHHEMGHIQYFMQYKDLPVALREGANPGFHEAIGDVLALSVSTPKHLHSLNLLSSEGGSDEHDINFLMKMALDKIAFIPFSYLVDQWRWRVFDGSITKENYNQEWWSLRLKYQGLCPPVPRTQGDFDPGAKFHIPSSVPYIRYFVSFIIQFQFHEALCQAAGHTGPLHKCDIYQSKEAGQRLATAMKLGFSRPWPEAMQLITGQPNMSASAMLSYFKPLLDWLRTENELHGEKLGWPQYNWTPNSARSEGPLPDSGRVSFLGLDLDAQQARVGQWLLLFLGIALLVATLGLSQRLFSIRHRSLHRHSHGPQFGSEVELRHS

Regarding `NCCCC[C@H](N[C@@H](CCc1ccccc1)C(=O)O)C(=O)N1CCC[C@H]1C(=O)O` [Lisinopril], the inhibition at 200 µg/mL is 16%.
